Measurements taken from ChEMBL document CHEMBL5104180, “Design, Synthesis, and Evaluation of New Sugar-Substituted Imidazole Derivatives as Selective c-MYC Transcription Repressors Targeting the Promoter G-Quadruplex” (J Med Chem, 2022).
Calls of active or inactive are those of the source. The rule behind the calls is not given here.

Assays:
[1] = test system: Quadruplex DNA; test: Stabilization of c-MYC G4 quadruplex DNA Pu22 (unknown origin) assessed as change in melting temperature at 2 uM by CD spectroscopy; type: nucleic-acid assay
[2] = biological target: Quadruplex DNA; test: Binding affinity to c-MYC G4- quadruplex DNA Pu22 (unknown origin) assessed as binding constant by SPR analysis; type: nucleic-acid assay
[3] = Binding affinity to G-rich KRAS DNA (unknown origin) assessed as binding constant by SPR analysis
[4] = Binding affinity to G-rich HRAS DNA (unknown origin) assessed as binding constant by SPR analysis
[5] = Binding affinity to G-rich NRAS RNA (unknown origin) assessed as binding constant by SPR analysis
[6] = Binding affinity to human G-rich Htg22 DNA assessed as binding constant by SPR analysis
[7] = Binding affinity to Hairpin DNA (unknown origin) assessed as binding constant by SPR analysis
[8] = biological target: Quadruplex DNA; test: Binding affinity to c-MYC G4 quadruplex DNA Pu22 (unknown origin) assessed as binding constant by SPR analysis; type: nucleic-acid assay
[9] = biological target: RNA; test: Binding affinity to NRAS RNA mutant (unknown origin) assessed as binding constant by SPR analysis
[10] = test system: HepG2; test: Cytotoxicity against human HepG2 cells assessed as reduction in cell viability measured after 48 hrs by MTT assay; type: functional, cell-based; conditions: HepG2, 48 h
[11] = test system: MDA-MB-231; test: Cytotoxicity against human MDA-MB-231 cells assessed as reduction in cell viability measured after 48 hrs by MTT assay; type: functional, cell-based; conditions: MDA-MB-231, 48 h
[12] = Cytotoxicity against human HBL-100 cells assessed as reduction in cell viability measured after 48 hrs by MTT assay; type: toxicity, cell-based
[13] = test system: NM23-H2/c-MYC G4 quadruplex DNA; test: Disruption of NM23-H2/c-MYC G4 quadruplex DNA (unknown origin) interaction incubated for 1 hrs by ELISA; type: protein assay
[14] = test system: BLM/c-MYC G4 quadruplex DNA; test: Disruption of BLM/c-MYC G4 quadruplex DNA (unknown origin) interaction incubated for 1 hrs by ELISA; type: protein assay
[15] = test system: DHX36/c-MYC G4 quadruplex DNA; test: Disruption of DHX36/c-MYC G4 quadruplex DNA (unknown origin) interaction incubated for 1 hrs by ELISA; type: protein assay
[16] = biological target: Quadruplex DNA; test: Binding affinity to 5' FAM-labeled c-MYC G4 quadruplex DNA Pu22 (unknown origin) by fluorescence quench assay; type: nucleic-acid assay
[17] = biological target: Quadruplex DNA; test: Binding affinity to 3' FAM-labeled c-MYC G4 quadruplex DNA Pu22 (unknown origin) by fluorescence quench assay; type: nucleic-acid assay
[18] = test system: MDA-MB-231; test: Cytotoxicity against human MDA-MB-231 cells measured after 48 hrs; type: functional, cell-based
[19] = test system: Quadruplex DNA; test: Inhibition of c-MYC G4 quadruplex DNA in HEK293T cells co-transfected with Renilla and firefly luciferase assessed as decrease in relative luciferase at 2.5 to 5 uM measured after 24 hrs by dual luciferase reporter assay; type: cell-based; conditions: Homo sapiens, dose 2.5-5 µM
[20] = test system: Quadruplex DNA; test: Inhibition of c-MYC G4 quadruplex DNA in HEK293T cells co-transfected with Renilla and firefly luciferase assessed as decrease in relative luciferase measured after 24 hrs by dual luciferase reporter assay; type: cell-based; conditions: Homo sapiens
[21] = test system: MDA-MB-231; test: Cytotoxicity against human MDA-MB-231 cells assessed as reduction in cell viability measured after 24 hrs; type: functional, cell-based
[22] = test system: MDA-MB-231; test: Downregulation of c-MYC mRNA level in human MDA-MB-231 cells measured after 24 hrs by RT-PCR analysis; type: functional, cell-based
[23] = test system: MDA-MB-231; test: Downregulation of c-MYC expression in human MDA-MB-231 cells measured after 48 hrs by western blot analysis; type: functional, cell-based
[24] = test system: NM23-H2/c-MYC G4 quadruplex DNA (Homo sapiens); test: Disruption of NM23-H2/c-MYC G4 quadruplex DNA interaction in MDA-MB-231 cells; type: cell-based
[25] = test system: Quadruplex DNA; test: Inhibition of c-MYC G4 quadruplex DNA in human MDA-MB-231 cells assessed as decrease in c-MYC immunoprecipitation at 1.25 to 5 uM measured after 24 hrs by chromatin immunoprecipitation assay; type: cell-based; conditions: dose 1.25-5 µM
[26] = test system: MCF7; test: Cytotoxicity against human MCF7 cells measured after 48 hrs; type: functional, cell-based
[27] = test system: HepG2; test: Cytotoxicity against human HepG2 cells measured after 48 hrs; type: functional, cell-based
[28] = test system: SiHa; test: Cytotoxicity against human SiHa cells measured after 48 hrs; type: functional, cell-based
[29] = test system: HBL-100; test: Cytotoxicity against human HBL-100 cells measured after 48 hrs; type: toxicity, cell-based; conditions: hbl-100, 48 h
[30] = test system: NCM460; test: Cytotoxicity against human NCM460 cells measured after 48 hrs; type: toxicity, cell-based; conditions: ncm460, 48 h
[31] = test system: MDA-MB-231; test: Anticancer activity against human MDA-MB-231 cells (OFP negative) expressing c-MYC G4 quadruplex DNA assessed as arrest of growth measured after 48 hrs by DAPI staining based orange fluorescent protein assay; type: functional, cell-based
[32] = test system: MDA-MB-231; test: Inhibition of colony formation in human MDA-MB-231 cells at 0.125 to 5 uM assessed as reduction in colony formation incubated for 10 days and subsequent media replacement with compound for every 2 days by crystal violet staining based assay; type: functional, cell-based; conditions: dose 0.125-5 µM, time 10.0 day
[33] = test system: MDA-MB-231; test: Inhibition of colony formation in human MDA-MB-231 cells at 5 uM assessed as reduction in colony formation incubated for 10 days and subsequent media replacement with compound for every 2 days by crystal violet staining based assay; type: functional; conditions: MDA-MB-231, 240 h, time 10 day
[34] = test system: MDA-MB-231; test: Antitumor activity against human MDA-MB-231 cells assessed as reduction in cell invasion measured after 24 hrs using crystal violet staining inverted microscope based transwell assay; type: functional; conditions: MDA-MB-231, 24 h
[35] = test system: MDA-MB-231; test: Induction of cell cycle arrest in human MDA-MB-231 cells assessed as accumulation at sub G0 phase at 5 uM after 24 hrs by propidium iodide staining based flow cytometric analysis; type: functional
[36] = test system: MDA-MB-231; test: Induction of apoptosis in human MDA-MB-231 cells assessed as early apoptosis at 5 uM measured after 24 hrs by AnnexinV/propidium iodide staining based flow cytometry; type: functional, cell-based
[37] = test system: MDA-MB-231; test: Induction of apoptosis in human MDA-MB-231 cells assessed as necrosis at 5 uM measured after 24 hrs by AnnexinV/propidium iodide staining based flow cytometry; type: functional, cell-based
[38] = test system: MDA-MB-231; test: Antitumor activity against human MDA-MB-231 cells xenografted in BALB/c-nu/nu mouse assessed as relative increment ratio at 2.5 mg/kg, ip measured for 24 days; type: functional; conditions: time 24 day
[39] = test system: MDA-MB-231; test: Antitumor activity against human MDA-MB-231 cells xenografted in BALB/c-nu/nu mouse assessed as tumor growth inhibition at 2.5 mg/kg, ip measured for 24 days; type: functional; conditions: MDA-MB-231, 576 h, time 24 day, read-out: TGI
[40] = Toxicity in BALB/c-nu/nu mouse xenografted with human MDA-MB-231 cells assessed as change in body weight at 2.5 mg/kg, ip; type: organism-based; conditions: in vivo
[41] = Toxicity in BALB/c-nu/nu mouse xenografted with human MDA-MB-231 cells assessed as effect on anatomized heart viscera at 2.5 mg/kg, ip measured after 24 hrs; type: organism-based; conditions: in vivo
[42] = Toxicity in BALB/c-nu/nu mouse xenografted with human MDA-MB-231 cells assessed as effect on anatomized liver viscera at 2.5 mg/kg, ip measured after 24 hrs; type: organism-based; conditions: in vivo
[43] = Toxicity in BALB/c-nu/nu mouse xenografted with human MDA-MB-231 cells assessed as effect on anatomized spleen viscera at 2.5 mg/kg, ip measured after 24 hrs; type: organism-based; conditions: in vivo
[44] = Toxicity in BALB/c-nu/nu mouse xenografted with human MDA-MB-231 cells assessed as effect on anatomized lung viscera at 2.5 mg/kg, ip measured after 24 hrs; type: organism-based; conditions: in vivo
[45] = Toxicity in BALB/c-nu/nu mouse xenografted with human MDA-MB-231 cells assessed as effect on anatomized kidney viscera at 2.5 mg/kg, ip measured after 24 hrs; type: organism-based; conditions: in vivo
[46] = Toxicity in BALB/c-nu/nu mouse xenografted with human MDA-MB-231 cells assessed as side effects at 2.5 mg/kg, ip measured after 24 hrs; type: organism-based; conditions: in vivo
[47] = test system: MDA-MB-231; test: Antitumor activity against human MDA-MB-231 cells xenografted in BALB/c-nu/nu mouse assessed as decrease in c-MYC expression in tumor tissue; type: functional, cell-based
[48] = test system: MDA-MB-231; test: Induction of cell cycle arrest in human MDA-MB-231 cells assessed as decrease in accumulation at G2/M phase at 5 uM after 24 hrs by propidium iodide staining based flow cytometric analysis; type: functional

CCn1c2ccccc2c2cc(-c3nc(-c4ccc(N5CCN(C)CC5)cc4)c(-c4ccc(N5CCN(C)CC5)cc4)n3-c3ccc(OCCOCCOC4(C)O[C@H]5O[C@H](CO)[C@@H](O)[C@H](O)[C@H]5O4)cc3)ccc21 (single isomer, unassigned)
ΔTm [1]: 20.3 °C | Kd [2]: 3.8 µM | Kd [3]: 16.4 µM | Kd [4]: > 20 µM | Kd [5]: > 20 µM | Kd [6]: > 20 µM | Kd [7]: > 20 µM | Kd [8]: > 20 µM | Kd [9]: > 20 µM | IC50 [10]: 5 µM | IC50 [11]: 3.9 µM | IC50 at 48 h [12]: > 100 µM | IC50 [13]: 0.16 µM | IC50 [14]: 2.3 µM | IC50 [15]: 7 µM | Kd [16]: 0.56 µM | Kd [17]: 2.94 µM | Activity [18]: Active | inhibition [19]: Active | Activity [20]: Active | Activity [21]: Active | Activity [22]: Active | Activity [23]: Active | Activity [24]: Active | inhibition [25]: Active | Activity [26]: Active | Activity [27]: Active | Activity [28]: Active | Activity [29]: Toxic | Activity [30]: Toxic | Activity [31]: Active | inhibition [32]: Active | inhibition at 5 µM [33]: 100% | IC50 [34]: 7 µM | inhibition at 5 µM [35]: 20% | Activity [36]: Active | Activity [37]: Active | Activity [38]: 89.9% | inhibition in vivo at 2.5 mg/kg [39]: 87.8% | Activity [40]: Non-Toxic | Activity [41]: Non-Toxic | Activity [42]: Non-Toxic | Activity [43]: Non-Toxic | Activity [44]: Non-Toxic | Activity [45]: Non-Toxic | Activity [46]: Non-Toxic | Activity [47]: Active | Activity [48]: Active
